Tests used:
Dihydrofolate reductase = target: T1, Dihydrofolate reductase (Homo sapiens, UniProt P00374); assay: Inhibition of human DHFR assessed as conversion of dihydrofolic acid to tetrahydrfolic acid by enzyme immunoassay in presence of NADPH
T1 sequence (P00374 whole entry): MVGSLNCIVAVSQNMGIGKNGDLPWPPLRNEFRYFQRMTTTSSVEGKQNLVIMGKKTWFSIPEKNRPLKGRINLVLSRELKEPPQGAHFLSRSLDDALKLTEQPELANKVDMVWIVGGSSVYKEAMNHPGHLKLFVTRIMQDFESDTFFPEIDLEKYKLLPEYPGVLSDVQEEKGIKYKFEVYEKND

[1] = Cytotoxicity against human HL-60(TB) cells assessed as cell growth at 10^-5 M after 48 hrs by sulforhodamine B assay; assay type: functional; settings: HL-60, 48 h, read-out: Activity
K562 = assay: Cytotoxicity against human K562 cells assessed as cell growth at 10^-5 M after 48 hrs by sulforhodamine B assay; assay type: functional; settings: K562, 48 h, read-out: Activity
[2] = Cytotoxicity against human RPMI8226 cells assessed as cell growth at 10^-5 M after 48 hrs by sulforhodamine B assay; assay type: functional; settings: RPMI-8226, 48 h, read-out: Activity
SR = assay: Cytotoxicity against human SR cells assessed as cell growth at 10^-5 M after 48 hrs by sulforhodamine B assay; assay type: functional; settings: read-out: Activity
A549 = assay: Cytotoxicity against human A549 cells assessed as cell growth at 10^-5 M after 48 hrs by sulforhodamine B assay; assay type: functional; settings: A549, 48 h, read-out: Activity
NCI-H460 = assay: Cytotoxicity against human NCI-H460 cells assessed as cell growth at 10^-5 M after 48 hrs by sulforhodamine B assay; assay type: functional; settings: NCI-H460, 48 h, read-out: Activity
NCI-H522 = assay: Cytotoxicity against human NCI-H522 cells assessed as cell growth at 10^-5 M after 48 hrs by sulforhodamine B assay; assay type: functional; settings: NCI-H522, 48 h, read-out: Activity
[3] = Cytotoxicity against human HCC2998 cells assessed as cell growth at 10^-5 M after 48 hrs by sulforhodamine B assay; assay type: functional; settings: HCC 2998, 48 h, read-out: Activity
[4] = Cytotoxicity against human HCT116 cells assessed as cell growth at 10^-5 M after 48 hrs by sulforhodamine B assay; assay type: functional; settings: HCT-116, 48 h, read-out: Activity
[5] = Cytotoxicity against human HCT15 cells assessed as cell growth at 10^-5 M after 48 hrs by sulforhodamine B assay; assay type: functional; settings: HCT-15, 48 h, read-out: Activity
KM12 = assay: Cytotoxicity against human KM12 cells assessed as cell growth at 10^-5 M after 48 hrs by sulforhodamine B assay; assay type: functional; settings: KM12, 48 h, read-out: Activity
[6] = Cytotoxicity against human SW620 cells assessed as cell growth at 10^-5 M after 48 hrs by sulforhodamine B assay; assay type: functional; settings: SW-620, 48 h, read-out: Activity
[7] = Cytotoxicity against human SF268 cells assessed as cell growth at 10^-5 M after 48 hrs by sulforhodamine B assay; assay type: functional; settings: SF-268, 48 h, read-out: Activity
[8] = Cytotoxicity against human SF295 cells assessed as cell growth at 10^-5 M after 48 hrs by sulforhodamine B assay; assay type: functional; settings: SF-295, 48 h, read-out: Activity
[9] = Cytotoxicity against human SNB75 cells assessed as cell growth at 10^-5 M after 48 hrs by sulforhodamine B assay; assay type: functional; settings: SNB-75, 48 h, read-out: Activity
MDA-MB-435 = assay: Cytotoxicity against human MDA-MB-435 cells assessed as cell growth at 10^-5 M after 48 hrs by sulforhodamine B assay; assay type: functional; settings: MDA-MB-435, 48 h, read-out: Activity
SK-MEL-2 = assay: Cytotoxicity against human SK-MEL-2 cells assessed as cell growth at 10^-5 M after 48 hrs by sulforhodamine B assay; assay type: functional; settings: SK-MEL-2, 48 h, read-out: Activity
SK-MEL-28 = assay: Cytotoxicity against human SK-MEL-28 cells assessed as cell growth at 10^-5 M after 48 hrs by sulforhodamine B assay; assay type: functional; settings: SK-MEL-28, 48 h, read-out: Activity
SK-MEL-5 = assay: Cytotoxicity against human SK-MEL-5 cells assessed as cell growth at 10^-5 M after 48 hrs by sulforhodamine B assay; assay type: functional; settings: SK-MEL-5, 48 h, read-out: Activity
[10] = Cytotoxicity against human OVCAR5 cells assessed as cell growth at 10^-5 M after 48 hrs by sulforhodamine B assay; assay type: functional; settings: OVCAR-5, 48 h, read-out: Activity
[11] = Cytotoxicity against human OVCAR8 cells assessed as cell growth at 10^-5 M after 48 hrs by sulforhodamine B assay; assay type: functional; settings: OVCAR-8, 48 h, read-out: Activity
[12] = Cytotoxicity against human NCI-ADR-RES cells assessed as cell growth at 10^-5 M after 48 hrs by sulforhodamine B assay; assay type: functional; settings: read-out: Activity
[13] = Cytotoxicity against human SKOV3 cells assessed as cell growth at 10^-5 M after 48 hrs by sulforhodamine B assay; assay type: functional; settings: SK-OV-3, 48 h, read-out: Activity
786-0 = assay: Cytotoxicity against human 786-0 cells assessed as cell growth at 10^-5 M after 48 hrs by sulforhodamine B assay; assay type: functional; settings: 786-0, 48 h, read-out: Activity
A498 = assay: Cytotoxicity against human A498 cells assessed as cell growth at 10^-5 M after 48 hrs by sulforhodamine B assay; assay type: functional; settings: A498, 48 h, read-out: Activity
ACHN = assay: Cytotoxicity against human ACHN cells assessed as cell growth at 10^-5 M after 48 hrs by sulforhodamine B assay; assay type: functional; settings: read-out: Activity
[14] = Cytotoxicity against human RXF393 cells assessed as cell growth at 10^-5 M after 48 hrs by sulforhodamine B assay; assay type: functional; settings: RXF 393, 48 h, read-out: Activity
SN12C = assay: Cytotoxicity against human SN12C cells assessed as cell growth at 10^-5 M after 48 hrs by sulforhodamine B assay; assay type: functional; settings: read-out: Activity
[15] = Cytotoxicity against human UO31 cells assessed as cell growth at 10^-5 M after 48 hrs by sulforhodamine B assay; assay type: functional; settings: UO-31, 48 h, read-out: Activity
[16] = Cytotoxicity against human DU145 cells assessed as cell growth at 10^-5 M after 48 hrs by sulforhodamine B assay; assay type: functional; settings: DU-145, 48 h, read-out: Activity
MCF7 = assay: Cytotoxicity against human MCF7 cells assessed as cell growth at 10^-5 M after 48 hrs by sulforhodamine B assay; assay type: functional; settings: MCF7, 48 h, read-out: Activity
[17] = Cytotoxicity against human BT549 cells assessed as cell growth at 10^-5 M after 48 hrs by sulforhodamine B assay; assay type: functional; settings: BT-549, 48 h, read-out: Activity
T47D = assay: Cytotoxicity against human T47D cells assessed as cell growth at 10^-5 M after 48 hrs by sulforhodamine B assay; assay type: functional; settings: read-out: Activity
MDA-MB-468 = assay: Cytotoxicity against human MDA-MB-468 cells assessed as cell growth at 10^-5 M after 48 hrs by sulforhodamine B assay; assay type: functional; settings: MDA-MB-468, 48 h, read-out: Activity

Structure (SMILES) | growth at 10 µM [1] [%] | growth at 10 µM (K562) [%] | growth at 10 µM [2] [%] | growth at 10 µM (SR) [%] | growth at 10 µM (A549) [%] | growth at 10 µM (NCI-H460) [%] | growth at 10 µM (NCI-H522) [%] | growth at 10 µM [3] [%] | growth at 10 µM [4] [%] | growth at 10 µM [5] [%] | growth at 10 µM (KM12) [%] | growth at 10 µM [6] [%] | growth at 10 µM [7] [%] | growth at 10 µM [8] [%] | growth at 10 µM [9] [%] | growth at 10 µM (MDA-MB-435) [%] | growth at 10 µM (SK-MEL-2) [%] | growth at 10 µM (SK-MEL-28) [%] | growth at 10 µM (SK-MEL-5) [%] | growth at 10 µM [10] [%] | also measured
O=C1NC(=O)C(=Cc2cn(CC(O)Cn3cc(C=C4C(=O)NC(=O)NC4=O)c4ccccc43)c3ccccc23)C(=O)N1 | 107 | 107 | 98.5 | 96.9 | 85.9 | 55.1 | 97.1 | 94.6 | 79.2 | 103 | 94 | 102 | 93.4 | 103 | 90.2 | 109 | 113 | 111 | 101 | 109 | IC50 (Dihydrofolate reductase): 5000 nM; growth at 10 µM [11]: 117%; growth at 10 µM [12]: 99.5%; growth at 10 µM [13]: 102%; growth at 10 µM (786-0): 91.3%; growth at 10 µM (A498): 106%; growth at 10 µM (ACHN): 105%; growth at 10 µM [14]: 89.1%; growth at 10 µM (SN12C): 107%; growth at 10 µM [15]: 86%; growth at 10 µM [16]: 104%; growth at 10 µM (MCF7): 91.1%; growth at 10 µM [17]: 82.6%; growth at 10 µM (T47D): 91.8%; growth at 10 µM (MDA-MB-468): 96.7%
COc1cc(/C=C2\C(=O)Nc3ccccc32)cc(OC)c1O | 1.88 | 7.58 | 46.6 | -10.3 | 67.9 | 40.1 | 8.78 | 78.8 | 46.4 | 61.6 | 32.2 | 31.5 | 78.3 | 60.6 | 23.1 | -25.3 | 50.4 | 90.2 | 45.7 | 112 | IC50 (Dihydrofolate reductase): 500 nM; growth at 10 µM [11]: 78.5%; growth at 10 µM [12]: 19.1%; growth at 10 µM [13]: 93.5%; growth at 10 µM (786-0): 83.2%; growth at 10 µM (A498): 52.5%; growth at 10 µM (ACHN): 77%; growth at 10 µM [14]: 71.3%; growth at 10 µM (SN12C): 77%; growth at 10 µM [15]: 60%; growth at 10 µM [16]: 92.5%; growth at 10 µM (MCF7): 30.8%; growth at 10 µM [17]: 74.8%; growth at 10 µM (T47D): 49.6%; growth at 10 µM (MDA-MB-468): 20.4%
CC1=NN(c2cccc(Cl)c2)C(=O)/C1=C\c1cn(CC(O)Cn2cc(/C=C3\C(=O)N(c4cccc(Cl)c4)N=C3C)c3ccccc32)c2ccccc12 | 109 | 101 | 109 | 96.3 | 94.1 | 111 | 97.6 | 102 | 99.3 | 106 | 100 | 108 | 104 | 111 | 93.4 | 106 | 115 | 109 | 101 | 102 | growth at 10 µM [11]: 115%; growth at 10 µM [12]: 111%; growth at 10 µM [13]: 110%; growth at 10 µM (786-0): 110%; growth at 10 µM (A498): 119%; growth at 10 µM (ACHN): 107%; growth at 10 µM [14]: 116%; growth at 10 µM (SN12C): 99.7%; growth at 10 µM [15]: 86.4%; growth at 10 µM [16]: 111%; growth at 10 µM (MCF7): 97.9%; growth at 10 µM [17]: 109%; growth at 10 µM (T47D): 88%; growth at 10 µM (MDA-MB-468): 123%
CN1C(=O)C(=Cc2cn(CC(O)Cn3cc(C=C4C(=O)N(C)C(=O)N(C)C4=O)c4ccccc43)c3ccccc23)C(=O)N(C)C1=O | 107 | 97.3 | 86.2 | 94.3 | 96.8 | 33.1 | 108 | 104 | 80.3 | 105 | 94.3 | 102 | 92 | 107 | 72.3 | 107 | 118 | 109 | 97 | 90.5 | IC50 (Dihydrofolate reductase): 20000 nM; growth at 10 µM [11]: 114%; growth at 10 µM [12]: 105%; growth at 10 µM [13]: 85.2%; growth at 10 µM (786-0): 100%; growth at 10 µM (A498): 98.4%; growth at 10 µM (ACHN): 93.7%; growth at 10 µM [14]: 104%; growth at 10 µM (SN12C): 99.1%; growth at 10 µM [15]: 63.8%; growth at 10 µM [16]: 106%; growth at 10 µM (MCF7): 91.8%; growth at 10 µM [17]: 92.3%; growth at 10 µM (T47D): 91.8%; growth at 10 µM (MDA-MB-468): 19.4%
O=C1Nc2ccccc2/C1=C/c1cn(CC(O)Cn2cc(/C=C3\C(=O)Nc4ccccc43)c3ccccc32)c2ccccc12 (stereo not given) | -10.2 | -16.7 | -41.7 | -2.94 | -11.6 | -65.1 | -17.4 | -16.9 | -64.2 | -69.8 | -80.9 | -60.4 | -62 | -84.7 | -95.9 | -87.6 | -57.6 | -85 | -80.2 | -34.1 | IC50 (Dihydrofolate reductase): 30 nM; Ki (Dihydrofolate reductase): 5.83 nM; growth at 10 µM [11]: 1.35%; growth at 10 µM [12]: 31.8%; growth at 10 µM [13]: -38.2%; growth at 10 µM (786-0): -70.8%; growth at 10 µM (A498): -73.2%; growth at 10 µM (ACHN): -68.4%; growth at 10 µM [14]: -90.8%; growth at 10 µM (SN12C): -53.6%; growth at 10 µM [15]: -9.18%; growth at 10 µM [16]: -90.5%; growth at 10 µM (MCF7): -67.5%; growth at 10 µM [17]: -55.3%; growth at 10 µM (T47D): -46.1%; growth at 10 µM (MDA-MB-468): -84.8%

— ChEMBL document CHEMBL3785084, “Rational modification of the lead molecule: Enhancement in the anticancer and dihydrofolate reductase inhibitory activity” (Bioorg Med Chem Lett, 2016)
